The text below walks through data of patent publication US6846810B2, “Antiviral nucleoside derivatives” (Roche Palo Alto LLC, priority 2002, dated 2005).

The test system of data set [1] is HCV replicon RNA (Renilla luciferase HCV replicon cells 2209-23). The data set can be described thus: Renilla luciferase assay (HCV replicon). To be noted: Huh-7, 72 h; 2209-23 replicon cells (human hepatoma Huh7), three days incubation, 50% reduction of replicon level. In kind it is cell-based, Hepatitis C virus.

For `[N-]=[N+]=N[C@]1(CO)O[C@@H](n2ccc(NC(=O)c3ccccc3)nc2=O)[C@H](O)[C@@H]1O`, the melting point was 108.1 to 118.2 °C.

`CCCC(=O)O[C@H]1[C@@H](n2ccc(N)nc2=O)O[C@@](CO)(N=[N+]=[N-])[C@H]1OC(=O)CCC.O=C(O)C(F)(F)F` gave a melting point of 91 to 94.9 °C.

Compound `CC(=O)Nc1ccn([C@@H]2O[C@@](CO)(N=[N+]=[N-])[C@@H](O)[C@H]2O)c(=O)n1` gave a melting point of 94 to 96.8 °C.

Consider `[N-]=[N+]=N[C@]1(COC(=O)c2ccccc2)O[C@@H](n2ccc(N)nc2=O)[C@H](OC(=O)c2ccccc2)[C@@H]1OC(=O)c1ccccc1` [Compound 25, Benzoic acid (2R,3S,4R,5R)-3,4-dibenzoyloxy-5-(4-amino-2-oxo-2H-pyrimidin-1-yl)-2-azido-tetrahydro-furan-2-ylmethyl ester], for which, in data set [1], the IC50 is 2.47 µM.

On to `CCC(=O)OC[C@@]1(N=[N+]=[N-])O[C@H](n2ccc(N)nc2=O)[C@H](OC(=O)CC)[C@@H]1OC(=O)CC.CS(=O)(=O)O`, for which the melting point is 149 to 153 °C.

In turn, `CC(C)C(N)C(=O)OC[C@@]1(N=[N+]=[N-])O[C@@H](n2ccc(N)nc2=O)[C@H](O)[C@@H]1O` (stereo partly drawn) [Compound 18, 1-[(2R,3S,4R,5R)-5-(4-Amino-2-oxo-2H-pyrimidin-1-yl)-2-azido-3,4-dihydroxy-tetrahydro-furan-2-ylmethoxycarbonyl]-2-methyl-propyl-ammonium; chloride] yielded an IC50 in data set [1] of 2.4 µM.

`CCCCCCCOC(=O)OC[C@@]1(N=[N+]=[N-])O[C@H](n2ccc(N)nc2=O)[C@H](O)[C@@H]1O.O=C(O)C(F)(F)F` displayed a melting point of 90.9 to 94.6 °C.

For `Cc1ccc(C(=O)OC[C@@]2(N=[N+]=[N-])O[C@H](n3ccc(N)nc3=O)[C@H](O)[C@@H]2O)cc1.Cl`, the melting point is 187 to 189 °C.

`CCCC(=O)O[C@H]1[C@@H](n2ccc(N)nc2=O)O[C@@](CO)(N=[N+]=[N-])[C@H]1OC(=O)CCC.Cl`: the melting point is 154.6 to 155.6 °C.

For the compound `CCCCC(=O)OC[C@@]1(N=[N+]=[N-])O[C@H](n2ccc(N)nc2=O)[C@H](OC(=O)CCCC)[C@@H]1OC(=O)CCCC.Cl` [Compound 46, (S)-1-((3R,4S,5R)-5-Azido-3,4-bis-pentanoyloxy-5-pentanoyloxymethyl-tetrahydro-furan-2-yl)-2-oxo-1,2-dihydro-pyrimidin-4-yl-ammonium; chloride], the melting point lay in the range of 72.9 to 74.7 °C.

With `CCCCCCCCCCCCC(=O)OC[C@]1(N=[N+]=[N-])OC(n2ccc(N)nc2=O)[C@H](O)[C@@H]1O.Cl` (some centres unmarked), the melting point was 178.6 to 179.4 °C.

Consider `CCC(=O)O[C@H]1[C@@H](n2ccc(N)nc2=O)O[C@@](CO)(N=[N+]=[N-])[C@H]1OC(=O)CC.Cl`, for which the melting point was 194.6 to 198.2 °C.

`CC(=O)OC[C@@]1(N=[N+]=[N-])O[C@H](n2ccc(N)nc2=O)[C@H](OC(C)=O)[C@@H]1OC(C)=O.Cl` registered a melting point of 88 to 90.9 °C.

`CCCCCC(=O)O[C@H]1[C@@H](n2ccc(N)nc2=O)O[C@@](CO)(N=[N+]=[N-])[C@H]1OC(=O)CCCCC.CS(=O)(=O)O` had a melting point of 127.3 to 128.6 °C.

In the case of `CC(C)(C)C(=O)OC[C@]1(N=[N+]=[N-])O[C@@H](n2ccc(N)nc2=O)[C@@H](OC(=O)C(C)(C)C)[C@H]1OC(=O)C(C)(C)C.Cl`, the melting point lay within 136.2 to 140 °C.

In turn, `CCCCCCOC(=O)OC[C@@]1(N=[N+]=[N-])O[C@H](n2ccc(N)nc2=O)[C@H](O)[C@@H]1O.O=C(O)C(F)(F)F` yielded a melting point of 71 to 103.9 °C.

As for `CCCCCCCCCCCC(=O)OC[C@@]1(N=[N+]=[N-])O[C@H](n2ccc(N)nc2=O)[C@H](O)[C@@H]1O.Cl`, the melting point lay within 154 to 155 °C.

`CC(C)(C)OC(=O)Nc1ccn([C@@H]2O[C@@](CO)(N=[N+]=[N-])[C@@H](O)[C@H]2O)c(=O)n1`: the melting point was in the range of 80 to 83.5 °C.

Compound `CC(=O)Nc1ccn([C@@H]2O[C@@](COC(C)=O)(N=[N+]=[N-])[C@@H](OC(C)=O)[C@H]2OC(C)=O)c(=O)n1` came in with a melting point of 77 to 80.1 °C.

As for `CCCCCCCCOC(=O)OC[C@@]1(N=[N+]=[N-])O[C@H](n2ccc(N)nc2=O)[C@H](O)[C@@H]1O.O=C(O)C(F)(F)F`, the melting point fell in the range of 70.5 to 81 °C.

The compound `CC(C)(C)C(=O)Nc1ccn([C@@H]2O[C@@](CO)(N=[N+]=[N-])[C@@H](O)[C@H]2O)c(=O)n1` yielded a melting point of 108 to 114 °C.

Consider `CC(C)C(=O)O[C@H]1[C@@H](n2ccc(N)nc2=O)O[C@@](CO)(N=[N+]=[N-])[C@H]1OC(=O)C(C)C.Cl`, for which the melting point was in the range of 191.1 to 191.9 °C.

`CCCCC(=O)O[C@H]1[C@@H](n2ccc(N)nc2=O)O[C@@](CO)(N=[N+]=[N-])[C@H]1OC(=O)CCCC.Cl` yielded a melting point of 124.3 to 128.4 °C.

Compound `CCCC(=O)OC[C@@]1(N=[N+]=[N-])O[C@H](n2ccc(N)nc2=O)[C@H](OC(=O)CCC)[C@@H]1OC(=O)CCC.Cl` registered a melting point of 167.5 to 170.6 °C.

On to `CCCCC(=O)O[C@H]1[C@@H](n2ccc(N)nc2=O)O[C@@](CO)(N=[N+]=[N-])[C@H]1OC(=O)CCCC.CS(=O)(=O)O`, for which the melting point was in the range of 115.3 to 120.1 °C.

Turning to `CCCCCCOC(=O)Nc1ccn([C@H]2O[C@@](CO)(N=[N+]=[N-])[C@@H](O)[C@H]2O)c(=O)n1`, the melting point was 134.4 to 136 °C.

Regarding `CC(C)CC(=O)OC[C@@]1(N=[N+]=[N-])O[C@H](n2ccc(N)nc2=O)[C@H](OC(=O)CC(C)C)[C@@H]1OC(=O)CC(C)C.Cl`, the melting point lay in the range of 142 to 142.8 °C.

Compound `CCC(=O)OC[C@@]1(N=[N+]=[N-])O[C@@H](n2ccc(N)nc2=O)[C@H](OC(=O)CC)[C@@H]1OC(=O)CC` came in with a melting point of 75.9 to 79.9 °C.

In turn, `CCCCCCCCCCOC(=O)OC[C@@]1(N=[N+]=[N-])O[C@H](n2ccc(N)nc2=O)[C@H](O)[C@@H]1O.O=C(O)C(F)(F)F` [Compound 86, (S)-1-((3R,4S,5R)-5-Azido-5-decyloxycarbonyloxymethyl-3,4-dihydroxy-tetrahydro-furan-2-yl)-2-oxo-1,2-dihydro-pyrimidin-4-yl-ammonium; trifluoro-acetate] came in with a melting point of 75 to 77.7 °C.

Compound `COC(=O)Nc1ccn([C@H]2O[C@@](CO)(N=[N+]=[N-])[C@@H](O)[C@H]2O)c(=O)n1` yielded a melting point of 141.1 to 141.8 °C.

`Cl.[N-]=[N+]=N[C@]1(CO)O[C@H](n2ccc(N)nc2=O)[C@H](OC(=O)c2ccccc2)[C@@H]1OC(=O)c1ccccc1` returned a melting point of 166.2 to 168.1 °C.

`CCCCCCCCCC(=O)OC[C@@]1(N=[N+]=[N-])O[C@H](n2ccc(N)nc2=O)[C@H](O)[C@@H]1O.Cl` came in with a melting point of 180.6 to 181.2 °C.

On to `CCCCOC(=O)Nc1ccn([C@@H]2O[C@@](CO)(N=[N+]=[N-])[C@@H](O)[C@H]2O)c(=O)n1`, for which the melting point lay within 86.5 to 94 °C.

Take `Cl.[N-]=[N+]=N[C@]1(COC(=O)c2ccccc2)O[C@H](n2ccc(N)nc2=O)[C@H](O)[C@@H]1O`: the melting point fell in the range of 163 to 166.5 °C.

Compound `CCCCCCCCCOC(=O)OC[C@@]1(N=[N+]=[N-])O[C@H](n2ccc(N)nc2=O)[C@H](O)[C@@H]1O.Cl` yielded a melting point of 174.7 to 176.1 °C.

For the compound `CCCCC(=O)OC[C@@]1(N=[N+]=[N-])O[C@H](n2ccc(N)nc2=O)[C@H](O)[C@@H]1O.Cl`, the melting point is 62.1 to 87.7 °C.

As for `CCC(=O)OC[C@@]1(N=[N+]=[N-])O[C@H](n2ccc(N)nc2=O)[C@H](OC(=O)CC)[C@@H]1OC(=O)CC.Cl`, the melting point was in the range of 72 to 75.2 °C.

On to `Cl.[N-]=[N+]=N[C@]1(COC(=O)c2ccccc2)O[C@H](n2ccc(N)nc2=O)[C@H](OC(=O)c2ccccc2)[C@@H]1OC(=O)c1ccccc1`, for which the melting point lay within 208.9 to 210.3 °C.

For the compound `CC(C)(C)C(=O)Nc1ccn([C@@H]2O[C@@](COC(=O)C(C)(C)C)(N=[N+]=[N-])[C@@H](OC(=O)C(C)(C)C)[C@H]2OC(=O)C(C)(C)C)c(=O)n1` [Compound 5, 2,2-Dimethyl-propionic acid (2R,3S,4R,5R)-2-azido-5-[4-(2,2-dimethyl-propionylamino)-2-oxo-2H-pyrimidin-1-yl]-3,4-bis-(2,2-dimethyl-propionyloxy)-tetrahydro-furan-2-ylmethyl ester], the melting point was in the range of 67.4 to 80 °C. This compound also gave an IC50 in data set [1] of 5.33 µM.

Compound `CCCCCCCCNC(=O)OC[C@@]1(N=[N+]=[N-])O[C@H](n2ccc(N)nc2=O)[C@H](O)[C@@H]1O.Cl` came in with a melting point of 164.9 to 168.5 °C.
